Data set [1] addresses T1, serotonin 1A receptor (Rattus norvegicus, UniProt P19327).
T1 construct: To the receptor fraction of the hippocampus were added a test compound and 0.5 nM of [^3H]; 8-hydroxy-dipropylaminotetralin; from tissue; host or cells: SD rat hippocampus, membrane (receptor) fraction
T1 sequence (P19327 1-422): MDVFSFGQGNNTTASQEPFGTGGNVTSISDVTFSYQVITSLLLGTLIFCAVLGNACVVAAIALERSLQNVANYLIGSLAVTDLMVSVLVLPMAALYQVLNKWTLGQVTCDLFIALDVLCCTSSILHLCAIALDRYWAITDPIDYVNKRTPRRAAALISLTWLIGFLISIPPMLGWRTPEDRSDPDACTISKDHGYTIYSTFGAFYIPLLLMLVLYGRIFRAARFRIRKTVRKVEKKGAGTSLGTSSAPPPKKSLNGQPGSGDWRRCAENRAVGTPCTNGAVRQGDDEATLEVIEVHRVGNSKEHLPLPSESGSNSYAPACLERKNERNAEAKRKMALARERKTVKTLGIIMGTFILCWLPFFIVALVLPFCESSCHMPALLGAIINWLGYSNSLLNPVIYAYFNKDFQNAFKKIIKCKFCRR
Description: Binding test on [3H] 8-hydroxy-dipropylaminotetralin (serotonin 1A receptor). Conditions: [3H] 8-OH-DPAT 0.5 nM, receptor fraction of rat hippocampus; read-out: 5HT1a.
Description: 3) [^3H] 8-Hydroxy-dipropylaminotetralin (8-OH-DPAT).
Use was made of SD rats aged 6 to 8 weeks.
The rats were sacrificed by dcapitation to extirpate the cerebra.
Each mixture was homogenized by using a Teflon glass homogenizer and centrifuged at 1,000×g for 10 min. The supernatant thus obtained was further centrifuged at 20,000×g for 20 min. The obtained precipitate was re-suspended in 50 times (based on the intial wet weight; in the case of the hippocampus) or 10 times (in the case of the cortex) as much a 50 mM Tris hydrochloride (pH 7.4) and incubated at room temperature for 30 min. After centrifuging at 20,000×g for 20 min, the obtained precipitate was further suspended and centrifuged twice each in the same manner. The precipitate thus obtained was suspended in 100 times (based on the initial wet weight; in the case of the hippocampus) or 20 times (in the case of the cortex) as much a 50 mM Tris hydrochloride solution (pH 7.4) to thereby give a receptor fraction. This receptor fraction was stored at −80° C. until using.
(Binding Test on [^3H] 8-hydroxy-dipropylaminotetralin)
To the receptor fraction of the hippocampus were added a test compound and 0.5 nM of [^3H] 8-hydroxy-dipropylaminotetralin and the resultant mixture was incubated at room temperature for 30 min. Next, it was filtered through a glass filter with the use of a cell harvester. After washing the glass filter with 50 mM Tris hydrochloride (pH 7.4), the radioactivity of the receptor was measured with a liquid scintillation counter. The binding detected in the presence of 10 μM of serotonin binoxalate was referred to as the nonspecific binding.
IC50 was calculated by the probit method, while Ki was determined in accordance with the following formula:
wherein c represents the concentration of the radioisotope-labeled compound, and Kd represents the dissociation constant of the radioisotope-labeled compound with respect to the receptor determined by Scatchard's analysis.

The target in data set [2] is serotonin 2 receptor (Rattus norvegicus, UniProt P14842). Description: Binding test on [3H] ketanserin (serotonin 2 receptor). Particulars: [3H] ketanserin 0.3 nM, receptor fraction of rat cerebral cortex; read-out: 5HT2.
serotonin 2 receptor, sequence (P14842 whole entry): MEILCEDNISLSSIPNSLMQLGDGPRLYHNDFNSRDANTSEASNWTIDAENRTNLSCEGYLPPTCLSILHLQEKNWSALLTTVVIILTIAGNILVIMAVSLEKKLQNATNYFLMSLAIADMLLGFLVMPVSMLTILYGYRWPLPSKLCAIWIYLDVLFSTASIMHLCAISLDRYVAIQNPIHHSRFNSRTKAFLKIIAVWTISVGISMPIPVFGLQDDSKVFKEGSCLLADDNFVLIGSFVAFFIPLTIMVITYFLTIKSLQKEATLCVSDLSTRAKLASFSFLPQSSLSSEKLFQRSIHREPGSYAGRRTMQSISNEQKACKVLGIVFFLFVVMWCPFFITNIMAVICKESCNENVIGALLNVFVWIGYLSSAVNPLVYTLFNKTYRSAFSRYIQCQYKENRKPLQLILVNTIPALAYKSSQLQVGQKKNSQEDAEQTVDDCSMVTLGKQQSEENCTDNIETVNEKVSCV
The target in data set [3] is α1 adrenalin receptor. The experiment in a line: Binding test on [3H] prazosin (α1 adrenalin receptor). Further details: species or system rat. Conditions: [3H] prazosin about 0.2 nM, receptor fraction of rat cerebral cortex.

Consider 32 compounds from patent US6579881B2 (Eisai Co., Ltd., priority 1997, dated 2003).

Structures can show the parent of a compound that is named as a salt.

Broadly, the melting point is the temperature of the solid-liquid transition.

For the compound `COc1ccc2c(c1)N(C1CCN(CCc3ccc(F)cc3)CC1)CCC2` (as salt: hydrochloride), the melting point was 258 °C (dec.).
With `COc1ccc2c(c1)N(C1CCN(CCc3ccc(F)cc3)CC1)C(C)(C)C2` (as salt: oxalate) [Example 396, 2,2-Dimethyl-1-[1-(4-fluorophenethyl)piperidin-4-yl]-6-methoxyindoline], the melting point was 228 °C (dec.).
Same read-out and setting: the result for `COc1ccc2c(c1C)N(C1CCN(CCc3ccc(F)cc3)CC1)CCC2` (as salt: oxalate) reads 176 to 178 °C.
In the case of `CC(=O)NCc1ccc2ccn(C3CCN(CCc4ccc(F)cc4F)CC3)c2c1` (as salt: oxalate) [Example 357, 1-[1-(2,4-difluorophenethyl)piperidin-4-yl]-6-acetamidomethylindole], the melting point was 103 to 106 °C.
Still for that read-out and setting: the same measure for `NCc1ccc2ccn(C3CCN(CCc4ccccc4F)CC3)c2c1` [Example 348, 1-[1-(2-fluorophenethyl)piperidin-4-yl]-6-aminomethylindole]: 86 to 87 °C; for `O=C1CCCN1Cc1ccc2ccn(C3CCN(CCc4ccc(F)cc4)CC3)c2c1` (as salt: oxalate) [Example 358, 1-[1-(4-fluorophenethyl)piperidin-4-yl]-6-(2-pyrrolidon-1-yl)methylindole]: 179 to 180 °C.
Same read-out and setting: the result for `OCCOc1ccc2c(c1)CCCC2C1CCN(CCc2ccc(F)cc2)CC1` (centres unmarked) (as salt: hydrochloride) [Example 278, 1-[2-(4-fluorophenyl)ethyl]-4-[6-(2-hydroxy)ethoxy-1,2,3,4-tetrahydronaphthalen-1-yl]piperidine] reads 213 to 215 °C (dec.).
`CC(=O)NCc1ccc2ccn(C3CCN(CCc4ccc(Br)cc4)CC3)c2c1` [Example 389, 1-[1-(4-bromophenethyl)piperidin-4-yl]-6-acetamidomethylindole] gave a melting point of 140 to 141 °C. The Ki in data set [1] was determined as 0.53 nM. For the same compound, the Ki in data set [2] came out at 15.5 nM.
As to `COc1ccc2c(c1)N(C1CCN(CC(=O)c3ccc(F)cc3)CC1)CCC2` (as salt: hydrochloride), the melting point was 153 to 155 °C (dec.).
On to `NC(=O)Cc1ccc2ccn(C3CCN(CCc4ccc(F)cc4F)CC3)c2c1` [Example 299, 1-[1-(2,4-difluorophenethyl)piperidin-4-yl]-6-carbamoylmethylindole], for which the melting point lay within 156.9 to 157.8 °C. Moreover, the Ki in data set [1] stood at 0.11 nM. Besides, the Ki in data set [2] worked out at 2.54 nM.
Compound `O=C(CN1CCCCC1)NCc1ccc2ccn(C3CCN(CCc4ccc(F)cc4)CC3)c2c1` (as salt: oxalate) [Example 376, 1-[1-(4-fluorophenethyl)piperidin-4-yl]-6-[(piperidin-1-yl)acetamido]methylindole] registered a melting point of 113 to 114 °C.
Still for that read-out and setting: the result for `CCS(=O)(=O)Nc1ccc2ccn(C3CCN(CCc4ccc(F)cc4)CC3)c2c1` [Example 335, 1-[1-(4-fluorophenethyl)piperidin-4-yl]-6-(N-methylmethanesulfonylamino)indole] reads 192 to 194 °C.
Still for that read-out and setting: the same measure for `O=C(Cc1ccc2ccn(C3CCN(CCc4ccc(F)cc4)CC3)c2c1)N1CCCC1` (as salt: oxalate) [Example 298, 1-[1-(4-fluorophenethyl)piperidin-4-yl]-6-(tetramethylenecarbamoylmethyl)indole Oxalate]: 171.5 to 172.1 °C; for `CC(=O)N(C)Cc1ccc2ccn(C3CCN(CCc4ccc(F)cc4)CC3)c2c1` (as salt: oxalate) [Example 359, 1-[1-(4-fluorophenethyl)piperidin-4-yl]-6-N-methylacetamidomethylindole]: 148 to 149 °C; for `COc1ccc2c(c1)N(C1CCN(CCCC#N)CC1)CCC2` (as salt: hydrochloride) [Example 269, 1-[1-(4-Cyanopropyl)piperidin-4-yl]-7-methoxy-1,2,3,4-tetrahydroquinoline Hydrochloride]: 180 to 183 °C (dec.).
Still for that read-out and setting: the result for `O=C(NCc1ccc2ccn(C3CCN(CCc4ccc(F)cc4)CC3)c2c1)n1ccnc1` (as salt: oxalate) [Example 368, 1-[1-(4-fluorophenethyl)piperidin-4-yl]-6-imidazocarbonylaminomethylindole] reads 156 to 157 °C; that for `COc1ccc2c(c1OC)N(C1CCN(CCc3ccc(F)cc3)CC1)CCC2` (as salt: hydrochloride), 213 to 215 °C.
For the compound `CS(=O)(=O)NCc1ccc(CCN2CCC(N3CCc4ccccc43)CC2)cc1` (as salt: oxalate) [Example 38, 1-[1-(4-methanesulfonylaminomethylphenethyl)piperidin-4-yl]indoline], the melting point was determined as 199 °C.
In turn, `O=[N+]([O-])c1ccc(CCN2CCC(N3CCc4ccccc43)CC2)cc1` [Example 29, 1-[1-(4-nitrophenethyl)piperidin-4-yl]indoline] showed a melting point of 95 to 97 °C. Also, the Ki in data set [2] is 36.5 nM.
With `CCN1CCN([C@@H]2c3ccccc3CC2N(C)Cc2ccc(F)cc2)CC1` (some centres unmarked) (as salt: hydrochloride) [Example 254], the melting point lay within 196 to 198 °C.
Still for that read-out and setting: the result for `COc1ccc2c(c1)N(C1CCN(CCc3cccs3)CC1)CCC2` (as salt: hydrochloride) [Example 270, 1-{1-[2-(2-Thienyl)ethyl]piperidin-4-yl}-7-methoxy-1,2,3,4-tetrahydroquinoline Hydrochloride] reads 232 to 235 °C.
The same measure, in the same setting: the result for `O=C(CCl)NCc1ccc(CCN2CCC(N3CCc4ccccc43)CC2)cc1` (as salt: oxalate) [Example 37, 1-[1-(4-chloroacetamidomethylphenethyl)piperidin-4-yl]indoline] reads 138 °C; that for `O=C(CCN1CCCCC1)NCc1ccc2ccn(C3CCN(CCc4ccc(F)cc4)CC3)c2c1` (as salt: oxalate) [Example 379, 1-[1-(4-fluorophenethyl)piperidin-4-yl]-6-[3-(piperidin-1-yl)propionylamino]methylindole], 108 to 109 °C; that for `O=C(CF)NCc1ccc2ccn(C3CCN(CCc4ccccc4F)CC3)c2c1` (as salt: oxalate) [Example 381, 1-[1-(2-fluorophenethyl)piperidin-4-yl]-6-fluoroacetamidomethylindole], 168 to 169 °C.
Regarding `CN(C)CCC(=O)NCc1ccc2ccn(C3CCN(CCc4ccc(F)cc4)CC3)c2c1` (as salt: oxalate) [Example 378, 1-[1-(4-fluorophenethyl)piperidin-4-yl]-6-(3-N,N-dimethylaminopropionyl)aminomethylindole], the melting point was 104 to 105 °C.
Still for that read-out and setting: the result for `CNCc1ccc2ccn(C3CCN(CCc4ccc(F)cc4)CC3)c2c1` (as salt: oxalate) [Example 361, 1-[1-(4-fluorophenethyl)piperidin-4-yl]-6-N-methylaminomethylindole] reads 195 to 196 °C.
Take `COc1ccc(C(=O)c2ccc3ccn(C4CCN(CCc5ccc(F)cc5)CC4)c3c2)cn1` [Example 317, 1-[1-(4-fluorophenethyl)piperidin-4-yl]-6-(2-methoxypyridin-5-ylcarbonyl)indole Oxalate]: the Ki in data set [1] is 0.76 nM; in data set [3], 400 nM; in data set [2], more than 20 nM.
For `O=C(Cc1ccc2ccn(C3CCN(CCc4ccc(F)cc4)CC3)c2c1)NCc1ccncc1` [Example 314, 1-[1-(4-fluorophenethyl)piperidin-4-yl]-6-(pyridin-4-yl)methylcarbamoylmethylindole], in that order: 0.72 nM, 51.3 nM and 1.1 nM.
In the same order, the values of `CNCc1ccc2ccn(C3CCN(CCc4ccc(F)cc4)CC3)c2c1` [Example 361, 1-[1-(4-fluorophenethyl)piperidin-4-yl]-6-N-methylaminomethylindole] are 0.27 nM, 77.4 nM and more than 20 nM.
In the same order, the values of `O=C(Cc1ccc2ccn(C3CCN(CCc4ccc(F)cc4)CC3)c2c1)NCCN1CCCC1` [Example 312, 1-[1-(4-fluorophenethyl)piperidin-4-yl]-6-[2-(pyrrolidin-1-yl)ethyl]carbamoylmethylindole Oxalate] are 8.27 nM, 53.3 nM and 0.56 nM.
For the compound `NC(=O)CNC(=O)Cc1ccc2ccn(C3CCN(CCc4ccc(F)cc4)CC3)c2c1` [Example 306, 1-[1-(4-fluorophenethyl)piperidin-4-yl]-6-(carbamoylmethyl)carbamoylmethylindole Oxalate], the Ki in data set [1] stood at 2.82 nM; in data set [3], 148 nM; in data set [2], 3.87 nM.
Compound `CN(C)CC(=O)NCc1ccc2ccn(C3CCN(CCc4ccc(F)cc4)CC3)c2c1` (as salt: oxalate) [Example 375, 1-[1-(4-fluorophenethyl)piperidin-4-yl]-6-(N,N-dimethylaminoacetamido)methylindole] had a melting point of 112 to 113 °C.
